Source: US9707269B2, “Sugar compositions for treating hemophilia A and/or von Willebrand disease” (CSL Behring GmbH, priority 2012, dated 2017)
“Also recorded” adds a separate entry of the source.

Legend:
clearance receptors = assay: Inhibition of pd VWF monomer interaction with clearance receptors by monosaccharides (Example 8); type: binding; conditions: in the presence of monosaccharides; example without data
Text: According to example 7, the interaction of pd VWF monomers with clearance receptors mentioned earlier is inhibited in the in the presence of monosaccharides such as galactose, fucose and N-acetylgalactosamine.

rhASGPR [1] = biological target: T1, rhASGPR (Homo sapiens, UniProt P07306); assay: SPR inhibition of ASF binding to rhASGPR by monosaccharides; conditions: in the presence of the monosaccharide, FIG. 11
T1 construct: The extracellular domains of receptor proteins were acquired from R&D Systems (Wiesbaden, Germany); purchased R&D Systems (Wiesbaden, Germany)
T1 sequence (P07306 62-291 limits assumed): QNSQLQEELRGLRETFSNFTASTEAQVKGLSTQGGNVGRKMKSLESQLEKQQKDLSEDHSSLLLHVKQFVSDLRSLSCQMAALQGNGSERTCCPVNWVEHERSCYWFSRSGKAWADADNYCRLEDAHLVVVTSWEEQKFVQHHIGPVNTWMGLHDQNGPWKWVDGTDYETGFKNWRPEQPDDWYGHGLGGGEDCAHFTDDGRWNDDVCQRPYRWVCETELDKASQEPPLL
Procedure: (§1) SPR technology (Biacore T200, GE Healthcare Biosciences, Uppsala, Sweden) was applied to evaluate mechanisms of realtime biomolecular interactions between VWF, receptor-blocking agents and clearance receptor candidates. The interaction experiments were performed at a flow cell temperature of +25° C. by applying running buffer containing 10 mM HEPES, 150 mM NaCl, 5 mM CaCl2 and 0.05% Tween-20 at pH 7.4, which was also used as sample dilution buffer. Reagents and buffer stock solutions were purchased from GE Healthcare Biosciences (Uppsala, Sweden). The extracellular domains of receptor proteins were acquired from R&D Systems (Wiesbaden, Germany). The ligands were captured on Series S Sensor […] pretreated according to the manufacturer's instructions. The receptor proteins were covalently immobilized through free amine groups to the carboxymethylated dextran matrix by applying the amine coupling kit according to the manufacturer protocol. A blank flow cell without immobilized protein was included as a reference surface on the chip for bulk shift and nonspecific binding changes.
(§2) Increasing concentrations of both ASF and fetuin ranging from 10,240 to 10 nM were prepared as a 2 fold serial dilution series in running buffer and sequentially injected across the chip surface at 25 μL/min in order to characterize protein-ligand interaction. […]
Kinetic data were analyzed using Biacore T200 Evaluation Software Version 1.0 (GE Healthcare Biosciences, Uppsala, Sweden). An interaction of the analyte with the ligand was detected by an increase in accumulating mass and specific binding was identified by subtracting the binding response recorded from the control surface, followed by subtracting an average of the buffer blank injections. A report point was positioned 20 seconds after the end of sample injection and was evaluated as representative for a stable protein-ligand interaction, which was of interest. […] Furthermore, the response was calculated relative to the baseline in each case. […]

[2] = tested on: clearance receptor candidates; assay: Interaction of pd VWF multimers with clearance receptor candidates and its inhibition (Example 10); type: binding; conditions: example without data; for inhibition of binding of pd VWF multimers to clearance receptor candidates: in the presence of ASF or monosaccharides
Text: According to Example 9, pd VWF multimers interact with clearance receptor candidates mentioned earlier. In addition, binding is inhibited in the presence of ASF or monosaccharides such as galactose, fucose and N-acetylgalactosamine.

rhCOLEC12 = biological target: T2, rhCOLEC12 (Homo sapiens, UniProt Q5KU26); assay: SPR binding to immobilized clearance receptor rhCOLEC12; conditions: 25 °C, 5 mM CaCl2, pH 7.4, FIGS. 9 and 10
T2 construct: The extracellular domains of receptor proteins were acquired from R&D Systems (Wiesbaden, Germany); purchased R&D Systems (Wiesbaden, Germany)
T2 sequence (Q5KU26 59-742 limits assumed): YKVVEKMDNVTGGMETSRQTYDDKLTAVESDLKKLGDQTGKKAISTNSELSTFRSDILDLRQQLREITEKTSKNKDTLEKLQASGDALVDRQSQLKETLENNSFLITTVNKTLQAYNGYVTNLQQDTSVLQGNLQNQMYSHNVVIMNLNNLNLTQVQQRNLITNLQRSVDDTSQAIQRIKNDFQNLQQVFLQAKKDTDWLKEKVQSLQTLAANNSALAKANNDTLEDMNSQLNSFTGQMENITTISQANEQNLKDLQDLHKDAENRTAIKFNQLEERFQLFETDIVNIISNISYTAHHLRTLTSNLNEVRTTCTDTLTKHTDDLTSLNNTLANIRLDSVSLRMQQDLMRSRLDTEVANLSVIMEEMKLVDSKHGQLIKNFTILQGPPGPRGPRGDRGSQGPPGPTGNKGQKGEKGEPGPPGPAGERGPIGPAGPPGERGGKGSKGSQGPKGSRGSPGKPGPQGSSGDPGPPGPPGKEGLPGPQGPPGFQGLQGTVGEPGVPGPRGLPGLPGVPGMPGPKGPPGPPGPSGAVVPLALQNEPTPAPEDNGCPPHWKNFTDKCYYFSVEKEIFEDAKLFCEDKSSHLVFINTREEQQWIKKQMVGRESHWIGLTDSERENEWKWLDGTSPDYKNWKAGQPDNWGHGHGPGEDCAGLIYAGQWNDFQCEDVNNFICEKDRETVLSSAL
Procedure: as §1, §2
(§3) Kinetic data were analyzed using Biacore T200 Evaluation Software Version 1.0 (GE Healthcare Biosciences, Uppsala, Sweden). An interaction of the analyte with the ligand was detected by an increase in accumulating mass and specific binding was identified by subtracting the binding response recorded from the control surface, followed by subtracting an average of the buffer blank injections. A report point was positioned 20 seconds after the end of sample injection and was evaluated as representative for a stable protein-ligand interaction, which was of interest. […] Furthermore, the response was calculated relative to the baseline in each case.

rhCLEC4M = biological target: T3, rhCLEC4M (Homo sapiens, UniProt Q9H2X3); assay: SPR binding to immobilized clearance receptor rhCLEC4M; conditions: 25 °C, 5 mM CaCl2, pH 7.4, FIGS. 9 and 10
T3 construct: The extracellular domains of receptor proteins were acquired from R&D Systems (Wiesbaden, Germany); purchased R&D Systems (Wiesbaden, Germany)
T3 sequence (Q9H2X3 71-399 limits assumed): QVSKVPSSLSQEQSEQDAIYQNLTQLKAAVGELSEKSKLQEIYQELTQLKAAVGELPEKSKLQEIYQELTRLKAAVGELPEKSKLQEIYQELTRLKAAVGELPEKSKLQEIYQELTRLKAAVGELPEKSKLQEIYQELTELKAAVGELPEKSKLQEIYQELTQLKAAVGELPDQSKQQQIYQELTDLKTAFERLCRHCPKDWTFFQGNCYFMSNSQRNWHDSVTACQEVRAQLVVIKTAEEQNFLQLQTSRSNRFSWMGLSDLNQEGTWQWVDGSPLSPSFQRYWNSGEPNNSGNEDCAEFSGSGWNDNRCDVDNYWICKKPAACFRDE
Procedure: as §1, §2, §3

rmCLEC4F = biological target: T4, rmCLEC4F (Mus musculus, UniProt P70194); assay: SPR binding to immobilized clearance receptor rmCLEC4F; conditions: 25 °C, 5 mM CaCl2, pH 7.4, FIGS. 9 and 10
T4 construct: The extracellular domains of receptor proteins were acquired from R&D Systems (Wiesbaden, Germany); purchased R&D Systems (Wiesbaden, Germany)
T4 sequence (P70194 70-548 limits assumed): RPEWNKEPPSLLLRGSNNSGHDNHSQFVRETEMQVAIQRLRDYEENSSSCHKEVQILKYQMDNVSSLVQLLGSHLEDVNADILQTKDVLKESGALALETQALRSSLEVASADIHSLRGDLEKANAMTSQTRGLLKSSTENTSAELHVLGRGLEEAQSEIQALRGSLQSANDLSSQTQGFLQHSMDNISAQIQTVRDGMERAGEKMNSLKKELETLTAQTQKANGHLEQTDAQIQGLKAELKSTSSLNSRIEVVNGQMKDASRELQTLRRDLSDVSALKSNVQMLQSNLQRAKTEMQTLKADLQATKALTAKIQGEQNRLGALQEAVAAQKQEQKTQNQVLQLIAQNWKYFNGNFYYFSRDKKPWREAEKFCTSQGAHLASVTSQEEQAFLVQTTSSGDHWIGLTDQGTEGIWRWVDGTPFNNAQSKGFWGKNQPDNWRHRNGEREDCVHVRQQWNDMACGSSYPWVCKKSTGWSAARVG
Procedure: as §1, §2, §3

rhSCARA5 = biological target: T5, rhSCARA5 (Homo sapiens, UniProt Q6ZMJ2); assay: SPR binding to immobilized clearance receptor rhSCARA5; conditions: 25 °C, 5 mM CaCl2, pH 7.4, FIGS. 9 and 10
T5 construct: The extracellular domains of receptor proteins were acquired from R&D Systems (Wiesbaden, Germany); purchased R&D Systems (Wiesbaden, Germany)
T5 sequence (Q6ZMJ2 82-495 limits assumed): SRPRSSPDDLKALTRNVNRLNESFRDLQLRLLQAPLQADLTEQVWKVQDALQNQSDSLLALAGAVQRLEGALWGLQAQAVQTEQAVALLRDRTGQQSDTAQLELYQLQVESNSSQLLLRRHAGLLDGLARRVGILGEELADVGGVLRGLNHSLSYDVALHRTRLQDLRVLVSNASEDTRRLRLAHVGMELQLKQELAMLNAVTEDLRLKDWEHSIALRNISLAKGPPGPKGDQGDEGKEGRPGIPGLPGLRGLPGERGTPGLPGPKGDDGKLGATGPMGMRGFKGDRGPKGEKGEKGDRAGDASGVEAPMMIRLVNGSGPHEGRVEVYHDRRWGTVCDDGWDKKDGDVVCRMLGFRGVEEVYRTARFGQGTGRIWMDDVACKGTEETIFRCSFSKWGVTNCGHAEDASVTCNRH
Procedure: as §1, §2, §3

rhASGPR [3] = biological target: T1, rhASGPR; assay: SPR binding to immobilized clearance receptor rhASGPR; conditions: 25 °C, 5 mM CaCl2, pH 7.4, FIGS. 9 and 10
Procedure: SPR technology (Biacore T200, GE Healthcare Biosciences, Uppsala, Sweden) was applied to evaluate mechanisms of realtime biomolecular interactions between VWF, receptor-blocking agents and clearance receptor candidates. The interaction experiments were performed at a flow cell temperature of +25° C. by applying running buffer containing 10 mM HEPES, 150 mM NaCl, 5 mM CaCl2 and 0.05% Tween-20 at pH 7.4, which was also used as sample dilution buffer. Reagents and buffer stock solutions were purchased from GE Healthcare Biosciences (Uppsala, Sweden). The extracellular domains of receptor proteins were acquired from R&D Systems (Wiesbaden, Germany). […]
as §3

rhCLEC10A = biological target: T6, rhCLEC10A (Homo sapiens, UniProt Q8IUN9); assay: SPR binding to immobilized clearance receptor rhCLEC10A; conditions: 25 °C, 5 mM CaCl2, pH 7.4, FIGS. 9 and 10
T6 construct: The extracellular domains of receptor proteins were acquired from R&D Systems (Wiesbaden, Germany); purchased R&D Systems (Wiesbaden, Germany)
T6 sequence (Q8IUN9 61-316 limits assumed): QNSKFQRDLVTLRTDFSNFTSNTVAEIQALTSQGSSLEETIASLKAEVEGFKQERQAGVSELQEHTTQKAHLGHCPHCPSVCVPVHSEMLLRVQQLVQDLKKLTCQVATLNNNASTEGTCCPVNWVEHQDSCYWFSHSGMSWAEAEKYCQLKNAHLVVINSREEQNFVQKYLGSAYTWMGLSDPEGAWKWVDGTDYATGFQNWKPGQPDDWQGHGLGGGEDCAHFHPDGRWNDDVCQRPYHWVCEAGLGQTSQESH
Procedure: as §1, §2, §3

rhASGPR [4] = biological target: T1, rhASGPR; assay: Solid-phase binding assay of multimeric VWF with rhASGPR; conditions: VWF 100 to 3 μg/mL, 1 hour at +37 °C; FIG. 12
Text: In addition to SPR-based interaction analysis with monomeric VWF, the interaction of multimeric VWF (purified from human plasma) with rhASGPR was investigated by using solid-phase binding assay. In addition, asialo-VWF (plasma derived VWF after treatment with α(2-3,6,8)-neuraminidase) was used as control.
Lyophilized rhASGPR (R&D Systems, Wiesbaden, Germany) was reconstituted and diluted in 0.05 M carbonate-bicarbonate buffer at pH 9.6, adsorbed onto high-adsorption 96-microwell plates at RT overnight, and subsequently washed with washing buffer (50 mM Tris, 150 mM NaCl, 5 mM CaCl2 and 0.1% (w/v) Tween-20 at pH 7.4). Afterwards, the wells were incubated for 1 hour with blocking solution (50 mM Tris, 150 mM NaCl, 5 mM CaCl2 and 2.5% (w/v) BSA at pH 7.4) in order to block non-specific binding, and then washed with washing buffer again. […] After washing the wells, associated VWF was subsequently detected by a commercial polyclonal rabbit anti-human VWF antibody conjugated with HRP (DakoCytomation, Glostrup, Denmark) that had been previously diluted 1:16,000 in dilution buffer. […] The reaction was stopped with stopping solution POD (Siemens Healthcare Diagnostics, Marburg, Germany) and the substrate reaction was photometrically monitored by measuring the difference in wave lengths at 450 nm and 620 nm.

Row | Molecule | inhibition of interaction of pd VWF monomers with clearance receptors (clearance receptors) | inhibition of ASF binding to immobilized rhASGPR (rhASGPR [1]) | inhibition of binding of pd VWF multimers to clearance receptor candidates [2] | SPR binding to rhCOLEC12 (rhCOLEC12) | SPR binding to rhCLEC4M (rhCLEC4M) | SPR binding to rmCLEC4F (rmCLEC4F) | SPR binding to rhSCARA5 (rhSCARA5) | SPR binding to rhCLEC10A (rhCLEC10A) | other results
1 | VWF: purified VWF monomers (pd VWF after reduction with dithiothreitol and carboxymethylation with iodoacetamide) | – | – | – | bind efficiently | bind efficiently | bind efficiently | bind efficiently | bind efficiently | SPR binding to rhASGPR (rhASGPR [3]): bind efficiently
2 | fetuin [reference compound] | – | – | – | almost not | almost not | almost not | almost not | almost not | SPR binding to rhASGPR (rhASGPR [3]): almost not
3 | plasma derived VWF multimers: multimeric VWF purified from human plasma, native glycosylation structure without modifications | – | – | – | – | – | – | – | – | interaction with rhASGPR, solid-phase binding assay (rhASGPR [4]): interacted with rhASGPR; interaction of pd VWF multimers with clearance receptor candidates ([2]; according to Example 9): interact
4 | asialofetuin: bovine ASF (fetuin after the removal of terminal sialic acid residues), ligand blocking galactose receptors such as ASGPR | – | – | inhibited | bind efficiently | bind efficiently | bind efficiently | bind efficiently | bind efficiently | –
5 | asialo-VWF multimers: plasma derived VWF after treatment with α(2-3,6,8)-neuraminidase, used as control | – | – | – | – | – | – | – | – | interaction with rhASGPR, solid-phase binding assay (rhASGPR [4]): interacted with rhASGPR

Second part, led by results:

Row | inhibition of interaction of pd VWF monomers with clearance receptors (clearance receptors) | Molecule | inhibition of ASF binding to immobilized rhASGPR (rhASGPR [1]) | inhibition of binding of pd VWF multimers to clearance receptor candidates [2] | SPR binding to rhCOLEC12 (rhCOLEC12) | SPR binding to rhCLEC4M (rhCLEC4M) | SPR binding to rmCLEC4F (rmCLEC4F) | SPR binding to rhSCARA5 (rhSCARA5) | SPR binding to rhCLEC10A (rhCLEC10A) | other results
6 | inhibited | C[C@H](O)[C@@H](O)[C@@H](O)[C@H](O)C=O [Fuc, fucose] | decreased binding; also recorded: inhibited binding | inhibited | – | – | – | – | – | –
7 | inhibited | CC(=O)N[C@H]1C(O)O[C@H](CO)[C@H](O)[C@@H]1O (stereo partly drawn) [GalNac, N-acetylgalactosamine] | decreased binding; also recorded: inhibited binding | inhibited | – | – | – | – | – | –
8 | inhibited | O=C[C@H](O)[C@@H](O)[C@@H](O)[C@H](O)CO [Gal, galactose] | decreased binding; also recorded: inhibited binding | inhibited | – | – | – | – | – | –
